From BindingDB's records for doi:10.1021/jm00003a002 (University of Minnesota, 1995) come the findings set out here.

Experiment [1] can be described thus: The opioid receptor affinity(Ki) was evaluated by competition with [3H]DSLET (delta 2) on guinea pig brain membranes.
Experiment [2] can be described thus: The opioid receptor affinity(Ki) was evaluated by competition with [3H]-DPDPE (delta 1) on guinea pig brain membranes.

One may read the Ki as a dissociation constant, usually derived from enzyme kinetics or from competition with a known ligand. Low values mean a stronger hold on the target, high ones a looser hold on the target.

As for `O=C(O)C[C@@H](NC(=O)c1cccc2c3c([nH]c12)[C@@H]1Oc2c(O)ccc4c2C12CCN(CC1CC1)C(C4)[C@]2(O)C3)C(=O)O` (stereo partly drawn) [2-[22-cyclopropylmethyl-2,16-dihydroxy-(2S,13R)-14-oxa-11,22-diazaheptacyclo[13.9.1.01,13.02,21.04,12.05,10.019,25]pentacosa-4(12),5(10),6,8,15(25),16,18-heptaen-9-ylcarboxamido]-(2R)-butanedioic acid], the values for the Ki in experiment [1] and in experiment [2] were 0.41 nM and 0.14 nM, respectively.

On to `N=C(N)NCCC[C@@H](NC(=O)c1cccc2c3c([nH]c12)[C@@H]1Oc2c(O)ccc4c2C12CCN(CC1CC1)C(C4)[C@]2(O)C3)C(=O)O` (stereo partly drawn) [5-amino(imino)methylamino-2-[22-cyclopropylmethyl-2,16-dihydroxy-(2S,13R)-14-oxa-11,22-diazaheptacyclo[13.9.1.01,13.02,21.04,12.05,10.019,25]pentacosa-4(12),5(10),6,8,15(25),16,18-heptaen-9-ylcarboxamido]-(2R)-pentanoic acid], for which the Ki in experiment [1] was 0.083 nM; in experiment [2], 0.16 nM.

`NCCC[C@@H](NC(=O)c1cccc2c3c([nH]c12)[C@@H]1Oc2c(O)ccc4c2C12CCN(CC1CC1)C(C4)[C@]2(O)C3)C(=O)O` (stereo partly drawn) [5-amino-2-[22-cyclopropylmethyl-2,16-dihydroxy-(2S,13R)-14-oxa-11,22-diazaheptacyclo[13.9.1.01,13.02,21.04,12.05,10.019,25]pentacosa-4(12),5(10),6,8,15(25),16,18-heptaen-9-ylcarboxamido]-(2R)-pentanoic acid]: the Ki is 0.015 nM in experiment [1] and 0.18 nM in experiment [2].

Regarding `NCCCC[C@@H](NC(=O)c1cccc2c3c([nH]c12)[C@@H]1Oc2c(O)ccc4c2C12CCN(CC1CC1)C(C4)[C@]2(O)C3)C(=O)O` (stereo partly drawn) [6-amino-2-[22-cyclopropylmethyl-2,16-dihydroxy-(2S,13R)-14-oxa-11,22-diazaheptacyclo[13.9.1.01,13.02,21.04,12.05,10.019,25]pentacosa-4(12),5(10),6,8,15(25),16,18-heptaen-9-ylcarboxamido]-(2R)-hexanoic acid], the Ki in experiment [1] turned out to be 0.75 nM; in experiment [2], 0.3 nM.

As to `O=C(O)c1cccc2c3c([nH]c12)[C@@H]1Oc2c(O)ccc4c2C12CCN(CC1CC1)C(C4)[C@]2(O)C3` (stereo partly drawn) [22-cyclopropylmethyl-2,16-dihydroxy-(2S,13R)-14-oxa-11,22-diazaheptacyclo[13.9.1.01,13.02,21.04,12.05,10.019,25]pentacosa-4(12),5(10),6,8,15(25),16,18-heptaene-9-carboxylic acid], the Ki turned out to be 0.016 nM in experiment [1] and 0.013 nM in experiment [2].

Regarding `O=C(O)CNC(=O)c1cccc2c3c([nH]c12)[C@@H]1Oc2c(O)ccc4c2C12CCN(CC1CC1)C(C4)[C@]2(O)C3` (stereo partly drawn) [32+/-82-[22-cyclopropylmethyl-2,16-dihydroxy-(2S,13R)-14-oxa-11,22-diazaheptacyclo[13.9.1.01,13.02,21.04,12.05,10.019,25]pentacosa-4(12),5(10),6,8,15(25),16,18-heptaen-9-ylcarboxamido]acetic acid], in experiment [2], the affinity corresponds to a Ki of 0.005 nM.
